Key:
[1] = system: P388 murine leukemia cell line; experiment: P388 cytotoxicity, cellular viability by ATP-Lite; format: cell-based; conditions: compound concentration required to inhibit growth by 50%, intracellular ATP
Description: A P388 murine leukemia cell line was obtained from NCI, Frederick, Md. P388 cells were cultured in RPMI-1640 supplemented with 10% fetal bovine serum, 2 mM Glutamax, 1 mM sodium pyruvate, 0.1 mM non-essential amino acids and 10 mM HEPES. Cells were grown at 37° C. in a humidified 5% CO2 atmosphere. Exponentially growing P388 cells were plated at 5,000 cells/well in a 96-well flat-bottomed microtiter plate (Corning, Costar #3595). […] Cellular viability was determined 72 hours later by measuring intracellular ATP with ATP-Lite assay system. The effect of compounds on cell viability was calculated by comparing the ATP levels of cells exposed to test compound with those of cells exposed to DMSO. A semi-log plot of relative ATP levels versus compound concentration was used to calculate the compound concentration required to inhibit growth by 50% (IC50). Data was analyzed by Prism software (GraphPad; San Diego, Calif.) by fitting it to a sigmoidal dose response curve.

[2] = system: P388/ADR cell lines (overexpress the multidrug resistance pump MDR-1); experiment: Multidrug resistant cell assay, cell viability by ATP-lite; format: cell-based, murine
Source text: Cytotoxicity of compounds in multidrug resistant cells can be determined by administering compounds to cell lines that overexpress the multidrug resistance pump MDR-1 and determining the viability of the cell lines. P388/ADR cell lines are known to overexpress the multidrug resistance pump MDR-1 (also known as P-glycoprotein-1; Pgp-1).
P388/ADR cell lines are obtained from American Type Culture Collection (Manassas, Va.) and maintained in RPMI-1640 media supplemented with 10% FCS, 10 units/mL penicillin and streptomycin, 2 mM Glutamax and 1 mM sodium pyruvate (Invitrogen Corporation, Carlsbad, Calif.). For compound testing, cells are plated in 96 well dishes at a concentration of 1.5×10^4 cells/well. Cells are allowed to adhere to the plate overnight and then incubated with compounds at final concentrations ranging from 0.13 nM to 10 μM for 72 hours. Cell viability is then assessed using the ATP-lite reagent (Perkin Elmer, Foster City, Calif.). Plates are read on a Wallac Topcount luminescence reader (Perkin Elmer, Foster City, Calif.) and the results graphed in Prism software (Graphpad Software, Inc., San Diego, Calif.). Non-linear regression with variable slope analysis is performed to obtain IC50 concentration values.

[3] = Mus musculus, 72 h, multidrug resistant cells overexpressing MDR-1
[4] = multidrug resistant cells overexpressing MDR-1, 72 hours

Row | Compound | IC50 ([1]; Mus musculus, P388, 72 h) | IC50 [2, 3] | IC50 ([1]; 72 hours) | IC50 [2, 4]
1 | CCOC(=O)C1C=CC(C)n2c(=O)n(CCNc3nc(N(C)c4ccc(OC)cc4)c4ccccc4n3)c(=O)n21 (stereo not drawn) [Example 6, 2-(2-{4-[(4-Methoxy-phenyl)-methyl-amino]-quinazolin-2-ylamino}-ethyl)-8-methyl-1,3-dioxo-2,3,5,8-tetrahydro-1H-[1,2,4]triazolo[1,2-a]pyridazine-5-carboxylic acid ethyl ester] | 3000 nM | 3500 nM | – | –
2 | COC(=O)NCCNc1nc(N(C)c2ccc(OC)cc2)c2cc(OC)ccc2n1 [Example 26, (2-{6-Methoxy-4-[(4-methoxy-phenyl)-methyl-amino]-quinazolin-2-ylamino}-ethyl)-carbamic acid methyl ester] | 7200 nM | 7400 nM | – | –
3 | COc1ccc(N(C)c2nc(NCCOC(=O)CN)nc3ccccc23)cc1 [Example 13, Amino-acetic acid 2-{4-[(4-methoxy-phenyl)-methyl-amino]-quinazolin-2-ylamino}-ethyl ester] | 15 nM | 18 nM | – | –
4 | COc1ccc(N(C)c2nc(N[C@@H](CO)c3ccccc3)nc3ccccc23)cc1 [Example 23, (R)-2-{4-[(4-Methoxy-phenyl)-methyl-amino]-quinazolin-2-ylamino}-2-phenyl-ethanol] | 4600 nM | 3300 nM | – | –
5 | COc1ccc(N(C)c2nc(CN(CCCO)Cc3nc(N(C)c4ccc(OC)cc4)c4ccccc4n3)nc3ccccc23)cc1 [Example 54, 3-(Bis-{4-[(4-methoxy-phenyl)-methyl-amino]-quinazolin-2-ylmethyl}-amino)-propan-1-ol] | 64 nM | 76 nM | – | –
6 | COc1ccc(N(C)c2nc(N3CCNCC3)nc3ccccc23)cc1 [Example 9, (4-Methoxy-phenyl)-methyl-(2-piperazin-1-yl-quinazolin-4-yl)-amine] | 2600 nM | 3200 nM | – | –
7 | COc1ccc(N(C)c2nc(CNC(=O)OC(COC(C)=O)COC(C)=O)nc3ccccc23)cc1 [Example 55, Acetic acid 3-acetoxy-2-{4-[(4-methoxy-phenyl)-methyl-amino]-quinazolin-2-ylmethylcarbamoyloxy}-propyl ester] | 330 nM | 450 nM | – | –
8 | COc1ccc(N(C)c2nc(NCCNC(N)=O)nc3ccccc23)cc1 [Example 40, (2-{4-[(4-Methoxy-phenyl)-methyl-amino]-quinazolin-2-ylamino}-ethyl)-urea] | 500 nM | 600 nM | – | –
9 | COc1ccc(N(C)c2nc(N[C@@H](C)C(=O)OC(C)(C)C)nc3ccccc23)cc1 [Example 28, (S)-2-{4-[(4-Methoxy-phenyl)-methyl-amino]-quinazolin-2-ylamino}-propionic acid tert-butyl ester] | 150 nM | 170 nM | – | –
10 | COc1ccc(N(C)c2nc(NCCNC(=O)CN)nc3ccccc23)cc1 [Example 41, 2-Amino-N-(2-{4-[(4-methoxy-phenyl)-methyl-amino]-quinazolin-2-ylamino}-ethyl)-acetamide] | 1700 nM | 5300 nM | – | –
11 | COc1ccc(N(C)c2nc(NCCNC(=O)OCc3ccccc3)nc3ccc(OC)cc23)cc1 [Example 17, (2-{6-Methoxy-4-[(4-methoxy-phenyl)-methyl-amino]-quinazolin-2-ylamino}-ethyl)-carbamic acid benzyl ester] | 4500 nM | 8500 nM | 3000 nM | –
12 | COc1ccc(N(C)c2nc(NCCOC(=O)[C@H](Cc3c[nH]c4ccccc34)NC(=O)OCc3ccccc3)nc3ccccc23)cc1 [Example 29, (S)-2-Benzyloxycarbonylamino-3-(1H-indol-3-yl)-propionic acid 2-{4-[(4-methoxy-phenyl)-methyl-amino]-quinazolin-2-ylamino}-ethyl ester] | 32 nM | 40 nM | – | –
13 | CCOC(=O)C(Nc1nc(N(C)c2ccc(OC)cc2)c2ccccc2n1)C(C)C (stereo not drawn) [Example 32, 2-{4-[(4-Methoxy-phenyl)-methyl-amino]-quinazolin-2-ylamino}-3-methyl-butyric acid ethyl ester] | 240 nM | 300 nM | – | –
14 | COc1ccc(N(C)c2nc(NCC(O)CNc3nc(N(C)c4ccc(OC)cc4)c4ccccc4n3)nc3ccccc23)cc1 [Example 42, 1,3-Bis-{4-[(4-methoxy-phenyl)-methyl-amino]-quinazolin-2-ylamino}-propan-2-ol] | 680 nM | 880 nM | – | –
15 | COc1ccc(N(C)c2nc(NCCOC(=O)[C@H](N)CCCCN)nc3ccccc23)cc1 [Example 15, (R)-2,6-Diamino-hexanoic acid 2-{4-[(4-methoxy-phenyl)-methyl-amino]-quinazolin-2-ylamino}-ethyl ester] | 11 nM | 33 nM | 15 nM | 22 nM
16 | CNC(=O)NCCNc1nc(N(C)c2ccc(OC)cc2)c2cc(OC)ccc2n1 [Example 37, 1-(2-{6-Methoxy-4-[(4-methoxy-phenyl)-methyl-amino]-quinazolin-2-ylamino}-ethyl)-3-methyl-urea] | 4700 nM | 6600 nM | – | –
17 | CCOCCOCCOCCOc1nc(N(C)c2ccc(OC)cc2)c2ccccc2n1 [Example 7, (2-{2-[2-(2-Ethoxy-ethoxy)-ethoxy]-ethoxy}-quinazolin-4-yl)-(4-methoxy-phenyl)-methyl-amine] | 1400 nM | 520 nM | – | –
18 | COc1ccc(N(C)c2nc(NCCOC(=O)[C@@H](N)CCSC)nc3ccccc23)cc1 [Example 27, (S)-2-Amino-4-methylsulfanyl-butyric acid 2-{4-[(4-methoxy-phenyl)-methyl-amino]-quinazolin-2-ylamino}-ethyl ester] | 220 nM | 220 nM | – | –
19 | COc1ccc(N(C)c2nc(NCCNCCNCCN)nc3ccccc23)cc1 [Example 4, N^2-{2-[2-(2-Amino-ethylamino)-ethylamino]-ethyl}-N^4-(4-methoxy-phenyl)-N^4-methyl-quinazoline-2,4-diamine] | 550 nM | 530 nM | – | –
20 | COc1ccc(N(C)c2nc(NCCNC(=O)OC(C)(C)C)nc3ccccc23)cc1OC [Example 14, (2-{4-[(3,4-Dimethoxy-phenyl)-methyl-amino]-quinazolin-2-ylamino}-ethyl)-carbamic acid tert-butyl ester] | 300 nM | 340 nM | 340 nM | 350 nM
21 | COc1ccc(N(C)c2nc(N[C@@H](CO)Cc3ccccc3)nc3ccccc23)cc1 [Example 25, (R)-2-{4-[(4-Methoxy-phenyl)-methyl-amino]-quinazolin-2-ylamino}-3-phenyl-propan-1-ol] | 1800 nM | 1800 nM | – | –
22 | COc1ccc(N(C)c2nc(NCC(O)CN)nc3ccccc23)cc1 (stereo not drawn) [Example 44, 1-Amino-3-{4-[(4-methoxy-phenyl)-methyl-amino]-quinazolin-2-ylamino}-propan-2-ol] | 37 nM | 57 nM | – | –
23 | COC(=O)[C@H](Cc1ccc(O)cc1)Nc1nc(N(C)c2ccc(OC)cc2)c2ccccc2n1 [Example 34, (S)-3-(4-Hydroxy-phenyl)-2-{4-[(4-methoxy-phenyl)-methyl-amino]-quinazolin-2-ylamino}-propionic acid methyl ester] | 36 nM | 43 nM | – | –

Source: patent publication US20100068197A1, “PHARMACEUTICAL COMPOUNDS AS INHIBITORS OF CELL PROLIFERATION AND THE USE THEREOF” (Myriad Pharmaceuticals, Inc., priority 2008, published 2010)
